Structures can show the parent of a compound that is named as a salt. Where two headings read alike, the source gives them in different places.
Molecular target: T1, SIRT1 (Homo sapiens, UniProt Q96EB6)
T1 sequence (Q96EB6 1-747): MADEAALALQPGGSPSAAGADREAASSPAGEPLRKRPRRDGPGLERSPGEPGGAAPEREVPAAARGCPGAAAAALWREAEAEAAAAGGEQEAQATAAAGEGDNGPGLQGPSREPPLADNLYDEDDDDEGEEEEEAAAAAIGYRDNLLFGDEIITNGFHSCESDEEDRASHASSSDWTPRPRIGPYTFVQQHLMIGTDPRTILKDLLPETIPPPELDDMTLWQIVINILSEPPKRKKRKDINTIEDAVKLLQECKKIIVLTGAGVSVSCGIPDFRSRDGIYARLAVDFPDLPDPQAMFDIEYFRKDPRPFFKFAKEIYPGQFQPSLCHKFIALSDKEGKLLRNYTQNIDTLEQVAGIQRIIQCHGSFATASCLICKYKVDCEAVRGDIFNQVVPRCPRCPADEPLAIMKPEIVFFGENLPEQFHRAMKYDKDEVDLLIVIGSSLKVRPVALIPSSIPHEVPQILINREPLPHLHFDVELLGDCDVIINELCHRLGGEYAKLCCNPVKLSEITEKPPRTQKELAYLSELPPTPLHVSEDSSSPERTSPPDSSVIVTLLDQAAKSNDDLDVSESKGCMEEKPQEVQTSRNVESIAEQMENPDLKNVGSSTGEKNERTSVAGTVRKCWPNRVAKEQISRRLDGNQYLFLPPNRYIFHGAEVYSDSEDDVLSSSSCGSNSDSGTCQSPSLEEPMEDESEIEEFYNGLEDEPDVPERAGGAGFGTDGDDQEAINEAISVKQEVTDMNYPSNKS
Test: Trp mass spectrometry assay of SIRT1 activation
Assay type: biochemical
Details: for TRP Activity (EC1.5): EC1.5 = concentration that results in 150% activation of SIRT1
Outline: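 N-terminal His-tagged human SIRT1 (10 nM, E. coli BL21(DE3)) with 0.5 μM Ac-RHKK(Ac)W-NH2 peptide and 120 μM βNAD+, 25 min at 25 °C in HEPES pH 7.5, formic acid stop. OAADPR or deacetylated peptide quantified by mass spectrometry; EC1.5 (50% activity increase over control) and Percent Maximum Activation reported.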

[1] = Trp peptide assay, maximum activity relative to control (100%), read-out: TRP MAX RESP (percent maximum fold activation)
[2] = concentration giving 150% activation of SIRT1, Trp peptide substrate
[3] = Trp mass spectrometry assay, EC1.5 = concentration of test compound that results in 150% activation of SIRT1
[4] = Trp mass spectrometry assay, concentration of test compound giving 150% activation of SIRT1

Compound	TRP Activity (EC1.5) (Trp peptide assay)	Emax [1]	Tryp AVG EC1.5 (μM) [3]	further results
CNc1cc(-c2ccc3c(n2)N(C(=O)Nc2cnccn2)[C@H]2CCN3C2)ccn1 [(9S)-5-[2-(methylamino)pyridin-4-yl]-N-(pyrazin-2-yl)-1,6,8-triazatricyclo[7.2.1.0 {2,7}]dodeca-2(7),3,5-triene-8-carboxamide]	B (B (EC1.5 1-25 μM))	> 150%	–	–
C#CCOc1cccc(NC(=O)N2c3nc(-c4cccc(C5(C(F)(F)F)N=N5)c4)ccc3N3CC[C@H]2C3)c1 [Example 797]	–	–	–	Tryp AVG EC1.5 (μM) [2]: A (A (EC1.5<1 μM))
CCc1ccc(-c2ccc3c(n2)N(C(=O)Nc2cnccn2)[C@H]2CCN3C2)cn1 [(9S)-5-(6-ethylpyridin-3-yl)-N-(pyrazin-2-yl)-1,6,8-triazatricyclo[7.2.1.0 {2,7}]dodeca-2(7),3,5-triene-8-carboxamide]	B (B (EC1.5 1-25 μM))	> 150%	–	–
COc1cc(NC(=O)N2c3nc(-c4cncc(F)c4)ccc3N3CCC2CC3)ncn1 [Example 579]	–	–	B (B (EC1.5 1-25 μM))	–
O=C(Nc1cccc(-c2cnco2)n1)N1c2nc(-c3cncc(F)c3)ccc2N2CC[C@H]1C2 [Example 739]	–	–	–	Tryp AVG EC1.5 (μM) [2]: A (A (EC1.5<1 μM))
N#Cc1ccccc1-c1ccc2c(n1)N(C(=O)Nc1cccnc1)[C@H]1CCCN2C1 [Example 438]	–	–	B (B (EC1.5 1-25 μM))	–
O=C(Nc1cnccn1)N1c2nc(N3CCC(C(F)(F)F)CC3)ccc2N2CC[C@H]1C2 [(9S)-N-(pyrazin-2-yl)-5-[4-(trifluoromethyl)piperidin-1-yl]-1,6,8-triazatricyclo[7.2.1.0 {2,7}]dodeca-2(7),3,5-triene-8-carboxamide]	A (A (EC1.5<1 μM))	> 150%	–	–
Cc1ccc(-c2ccc3c(n2)N(C(=O)Nc2cncc(OC[C@@H](O)CO)n2)[C@H]2CCN3C2)cn1 [(9S)-N-{6-[(2S)-2,3-dihydroxypropoxy]pyrazin-2-yl}-5-(6-methylpyridin-3-yl)-1,6,8-triazatricyclo[7.2.1.0 {2,7}]dodeca-2(7),3,5-triene-8-carboxamide]	B (B (EC1.5 1-25 μM))	> 150%	–	–
O=C(Nc1cnccn1)N1c2nc(-c3cccc(Cl)c3)ccc2N2C[C@@H](O)[C@H]1C2 [Example 678]	–	–	–	Tryp AVG EC1.5 (μM) [2]: C (C (EC1.5>25 μM))
Cc1cc(-c2ccc3c(n2)N(C(=O)Nc2nccnc2F)[C@H]2CCN3C2)ccn1 [(9S)-N-(3-fluoropyrazin-2-yl)-5-(2-methylpyridin-4-yl)-1,6,8-triazatricyclo[7.2.1.0^{2,7}]dodeca-2,4,6-triene-8-carboxamide]	B (B (EC1.5 1-25 μM))	> 150%	–	–
C[C@H]1CN(c2ccc3c(n2)N(C(=O)Nc2cnccn2)[C@H]2CCN3C2)CCO1 [(9S)-5-[(2S)-2-methylmorpholin-4-yl]-N-(pyrazin-2-yl)-1,6,8-triazatricyclo[7.2.1.0 {2,7}]dodeca-2,4,6-triene-8-carboxamide]	B (B (EC1.5 1-25 μM))	> 150%	–	–
CC(C)(C)OC(=O)NCC#Cc1cc(NC(=O)N2c3nc(-c4cccc(C(F)(F)F)c4)ccc3N3CCC[C@H]2C3)cc(-c2cnco2)c1 [Example 760]	–	–	–	Tryp AVG EC1.5 (μM) [2]: A (A (EC1.5<1 μM))
O=C(Nc1cnccn1)N1c2nc(-c3ccnc(N4CCC(F)(F)C4)c3)ccc2N2CC[C@H]1C2 [Example 423]	–	–	A (A (EC1.5<1 μM))	–
NCc1ccc(NC(=O)N2c3nc(-c4cccc(C(F)(F)F)c4)ccc3N3CCC[C@H]2C3)cc1 [444 (4), (9S)—N-(4-(aminomethyl)phenyl)-2-(3-(trifluoromethyl)phenyl)-8,9-dihydro-6H-5,9-methanopyrido[2,3-b][1,4]diazocine-10(7H)-carboxamide hydrochloride]	–	–	A (A (EC1.5<1 μM))	–
COc1cc(NC(=O)N2c3nc(-c4cncc(C(F)(F)F)c4)ccc3N3C[C@@H](O)[C@H]2C3)ncn1 [Example 696]	–	–	–	Tryp AVG EC1.5 (μM) [2]: B (B (EC1.5 1-25 μM))
O=C(Nc1cccnc1)N1c2nc(-c3cncc(F)c3)ccc2N2CCC1CC2 [Example 572]	–	–	B (B (EC1.5 1-25 μM))	–

Compound	TRP Activity (EC1.5) (Trp peptide assay)	Emax [1]	Tryp AVG EC1.5 (μM) [3]	further results
O=C(Nc1ccnc(OC[C@H](O)CO)n1)N1c2nc(-c3cccc(C(F)(F)F)c3)ccc2N2CC[C@H]1C2 [(9S)-N-{2-[(2R)-2,3-dihydroxypropoxy]pyrimidin-4-yl}-5-[3-(trifluoromethyl)phenyl]-1,6,8-triazatricyclo[7.2.1.0 {2,7}]dodeca-2(7),3,5-triene-8-carboxamide]	A (A (EC1.5<1 μM))	> 150%	–	–
O=C(Nc1ccc(F)cn1)N1c2nc(-c3ccnc(N4CCC(C(F)(F)F)C4)c3)ccc2N2CC[C@H]1C2 (some centres unmarked) [Example 391]	–	–	–	Tryp AVG EC1.5 (μM) [4]: A (A (EC1.5<1 μM))
CN1CCN(c2ccnc(NC(=O)N3c4nc(-c5cccc(C(F)(F)F)c5)ccc4N4CC[C@H]3C4)n2)CC1 [Example 742]	–	–	–	Tryp AVG EC1.5 (μM) [2]: A (A (EC1.5<1 μM))
Cc1cc(-c2ccc3c(n2)N(C(=O)Nc2cccc(-c4cnco4)c2)[C@H]2CCN3C2)ccn1 [Example 480]	–	–	A (A (EC1.5<1 μM))	–
O=C(Nc1cc(F)ccn1)N1c2nc(-c3cccc(C(F)(F)F)c3)ccc2N2CCC1CC2 [Example 492]	–	–	A (A (EC1.5<1 μM))	Emax (Trp mass spectrometry assay, percent maximum fold activation of SIRT1, read-out: Tryp % Fold Act): > 150%
Cc1cc(-c2ccc3c(n2)N(C(=O)Nc2cncc(C)n2)[C@H]2CCCN3C2)ccn1 [(9S)-N-(6-methylpyrazin-2-yl)-5-(2-methylpyridin-4-yl)-1,6,8-triazatricyclo[7.3.1.0 {2,7}]trideca-2(7),3,5-triene-8-carboxamide]	B (B (EC1.5 1-25 μM))	> 150%	–	–
O=C(Nc1ccccn1)N1c2nc(-c3ccnc(C(F)(F)F)c3)ccc2N2CCC[C@H]1C2 [(9S)-N-(pyridin-2-yl)-5-[2-(trifluoromethyl)pyridin-4-yl]-1,6,8-triazatricyclo[7.3.1.0 {2,7}]trideca-2(7),3,5-triene-8-carboxamide]	A (A (EC1.5<1 μM))	> 150%	–	–
N#Cc1cncc(-c2ccc3c(n2)N(C(=O)Nc2ccccn2)[C@H]2CCCN3C2)c1 [Example 557]	–	–	A (A (EC1.5<1 μM))	–
O=C(Nc1cccnn1)N1c2nc(-c3cncc(C(F)(F)F)c3)ccc2N2CCC[C@H]1C2 [Example 412]	–	–	–	Tryp AVG EC1.5 (μM) [4]: A (A (EC1.5<1 μM))
Cc1cc(C(F)(F)F)nc(NC(=O)N2c3nc(-c4cccc(C(F)(F)F)c4)ccc3N3CC[C@H]2C3)n1 [Example 94]	–	–	–	Tryp AVG EC1.5 (μM) (Trp peptide substrate, concentration giving 150% activation of SIRT1): B (B (EC1.5 1-25 μM))
O=C(Nc1ccccn1)N1c2nc(-c3cccc(Cl)c3)ccc2N2CCC1CC2 [Example 533]	–	–	B (B (EC1.5 1-25 μM))	–
Cc1cc(-c2ccc3c(n2)N(C(=O)Nc2ccccn2)[C@H]2CCCN3C2)ccn1 [(9S)-5-(2-methylpyridin-4-yl)-N-(pyridin-2-yl)-1,6,8-triazatricyclo[7.3.1.0 {2,7}]trideca-2(7),3,5-triene-8-carboxamide]	A (A (EC1.5<1 μM))	> 150%	–	–
CCCn1cc(-c2ccc3c(n2)N(C(=O)Nc2cccnc2)[C@H]2CCN3C2)cn1 [Example 487]	–	–	B (B (EC1.5 1-25 μM))	–
O=C(Nc1ccccn1)N1c2cc(-c3cccc(C(F)(F)F)c3)ccc2N2CC[C@H]1C2 [Example 785]	–	–	–	Tryp AVG EC1.5 (μM) [2]: C (C (EC1.5>25 μM))
Cc1cc(-c2ccc3c(n2)N(C(=O)Nc2cnccn2)[C@H]2CCN3C2)cnn1	B (B (EC1.5 1-25 μM))	> 150%	–	–
COc1cc(NC(=O)N2c3nc(-c4cccc(C(F)(F)F)c4)ccc3N3C[C@@H](O)[C@H]2C3)ncn1 [Example 644]	–	–	–	Tryp AVG EC1.5 (μM) [2]: B (B (EC1.5 1-25 μM))
